Laboratory results taken from patent publication US7569517B2, “4-biphenyl-substituted pyrazolidin-3 5-diones pesticide agent and/or microbicide and/or herbicide” (Bayer CropScience AG, priority 2003, dated 2009).

Tests used:
Format in all cases: in vivo
[1] = test system: Meloidogyne incognita; assay: Meloidogyne test (Example A); conditions: 20 ppm active compound; nematicidal action by formation of galls on lettuce roots; 100% = no galls
Description: • Solvent: 7 parts by weight of dimethylformamide • Emulsifier: 2 parts by weight of alkylaryl polyglycol ether
To produce a suitable preparation of active compound, 1 part by weight of active compound is mixed with the stated amounts of solvent and emulsifier, and the concentrate is diluted with water to the desired concentration.
Containers are filled with sand, solution of active compound, Meloidogyne incognita egg/larvae suspension and lettuce seeds. The lettuce seeds germinate and the plants develop. On the roots, galls are formed.
After the desired period of time, the nematicidal action is determined in % by the formation of galls. 100% means that no galls were found; 0% means that the number of galls on the treated plants corresponds to that of the untreated control.

[2] = test system: monocotyledonous and dicotyledonous weed and crop plants (cereals); assay: Herbicidal post-emergence action, use of safeners, container trials with cereals in the greenhouse (Example I); conditions: without safener
Description: (§1) Herbicidal Post-emergence Action
Seeds of monocotyledonous and dicotyledonous weed and crop plants are placed into sandy loam in wood fibre pots or in plastic pots, covered with soil and cultivated in a greenhouse, during the vegetation period also outdoors outside of the greenhouse, under good growth conditions. 2-3 weeks after sowing, the test plants are treated at the one- to three-leaf stage. The test compounds, formulated as wettable powders (WP), or emulsifiable concentrates (EC), are, in various dosages with a water application rate of 300 l/ha (converted), with wetting agent (0.2 to 0.3%) added, sprayed onto the plants and the surface of the soil. 3-4 weeks after the treatment of the test plants, the effect of the preparations is rated visually in comparison to untreated controls (herbicidal effect in precent (%): 100% effect=the plants have died, 0% effect=like control plants).
If it is additionally to be tested whether safeners can improve the plant compatibility of test substances in the case of the crop plants, the following option is used for applying the safener: • seeds of the crop plants are, before sowing, dressed with the safener substance (the amount of safener is stated in percent, based on the weight of seed) • before the application of the test substances, the crop plants are sprayed with the safener at a certain application rate per hectare (usually 1 day before the application of the test substances) • the safener is applied together with the test substance as a tank mix (the amount of safener is stated in g/ha or as a ratio, based on the herbicide).
By comparing the effect of test substances on crop plants without or with safener treatment, it is possible to assess the effect of the safener substance.

[3] = test system: monocotyledonous and dicotyledonous weed and crop plants; assay: Herbicidal pre-emergence action (Example G); conditions: greenhouse, 320 g of a.i./ha
From the text: Herbicidal Pre-emergence Action
Seeds of monocotyledonous and dicotyledonous weed and crop plants are placed into sandy loam in wood fibre pots and covered with soil. The test compounds, formulated in the form of wettable powders (WP), are then, in various dosages as aqueous suspension with a water application rate of 600 l/ha (converted), with 0.2% of wetting agent added, applied to the surface of the covering soil. After the treatment, the pots are placed in a greenhouse and kept under good growth conditions for the test plants. The visual assessment of the emergence damage on the test plants is carried out after a trial period of 3 weeks by comparison with untreated controls (herbicidal effect in percent (%): 100% effect=the plants have died, 0% effect=like control plants).

[4] = test system: greenhouse red spider mite (Tetranychus urticae); assay: Tetranychus test (OP-resistance/spray treatment) (Example E); conditions: 100 g/ha; sprayed bean leaf discs
Description: Tetranychus Test (OP-resistance/Spray Treatment)
• Solvents: 78 parts by weight of acetone • 1.5 parts by weight of dimethylformamide • Emulsifier: 0.5 part by weight of alkylaryl polyglycol ether
To prepare a suitable preparation of active compound, 1 part by weight of active compound is mixed with the stated amounts of solvents and emulsifier, and the concentrate is diluted with emulsifier-containing water to the desired concentration.
Discs of bean leaves (Phaseolus vulgaris) which are infested by all stages of the greenhouse red spider mite (Tetranychus urticae) are sprayed with a preparation of active compound of the desired concentration.
After the desired period of time, the activity in % is determined. 100% means that all spider mites have been killed; 0% means that none of the spider mites have been killed.

[5] = test system: monocotyledonous and dicotyledonous weed and crop plants; assay: Herbicidal post-emergence action (Example H); conditions: greenhouse, 320 g of a.i./ha
Description: as §1
Seeds of monocotyledonous and dicotyledonous weed and crop plants are placed into sandy loam in wood fibre pots, covered with soil and cultivated in a greenhouse under good growth conditions. 2-3 weeks after sowing, the test plants are treated at the one-leaf stage. The test compounds, formulated as wettable powders (WP), are, in various dosages with a water application rate of 600 l/ha (converted), with 0.2% of wetting agent added, sprayed onto the green parts of the plants. After the test plants were kept in a greenhouse under optimum growth conditions for about 3 weeks, the effect of the preparations is rated visually in comparison to untreated controls (herbicidal effect in percent (%): 100% effect=the plants have died, 0% effect=like control plants).

| SMILES | Effect in % after 14d [1] [%] | Summer barley observed (%) ([2]; 50 g of a.i./ha) | Summer wheat observed (%) ([2]; 50 g of a.i./ha) | Summer barley observed (%) ([2]; 100 g of a.i./ha) | Summer wheat observed (%) ([2]; 100 g of a.i./ha) | herbicidal effect, Echinochloea ([3]; Echinochloea) [%] | herbicidal effect, Setaria ([3]; Setaria) [%] | herbicidal effect, Sorghum ([3]; Sorghum) [%] | herbicidal effect, Soybeans ([3]; Soybeans) [%] | herbicidal effect, Wheat ([3]; Wheat) [%] | Kill rate in % after 5d [4] [%] | herbicidal effect, Alopecurus ([5]; Alopecurus) [%] | herbicidal effect, Digitaria ([5]; Digitaria) [%] | herbicidal effect, Lolium ([5]; Lolium) [%] | herbicidal effect, Setaria ([5]; Setaria) [%] | herbicidal effect, Sugarbeets ([5]; Sugarbeets) [%] | Summer barley observed (%) ([2]; 25 g of a.i./ha) | Summer wheat observed (%) ([2]; 25 g of a.i./ha) |
| --- | --- | --- | --- | --- | --- | --- | --- | --- | --- | --- | --- | --- | --- | --- | --- | --- | --- | --- |
| Cc1cc(-c2ccc(Cl)cc2)cc(C)c1C1(Cl)C(=O)N2CCCCN2C1=O [Ex. I-3-1] | 100 | 80 | 60 | 80 | 60 | – | – | – | – | – | – | – | – | – | – | – | – | – |
| Cc1cc(-c2ccc(Cl)cc2)cc(C)c1C1(Cl)C(=O)N2CCOCCN2C1=O [Ex. I-4-1] | – | 95 | 97 | 97 | 97 | 70 | 80 | 70 | 0 | 0 | 90 | 80 | 100 | 80 | 100 | 10 | 40 | 60 |
